Data published in patent US20170079267A1, “SEX PHEROMONE COMPOSITION OF PEACH FRUIT MOTH AND ATTRACTANT COMPRISING THE SAME” (SHIN-ETSU CHEMICAL CO., LTD., priority 2011, published 2017).

Test system: antenna of a male adult of peach fruit moth
Test: GC-EAD (electroantennographic detection) of the extract of peach fruit moth
Set-up: species or system Carposina sasakii
Settings: GC-EAD of pheromone gland extract; male adult 3 to 5 days after eclosion
Experimental: An EAD chart of the extract of peach fruit moth (Carposina sasakii) is shown in FIG. 1A and a GC chart of the extract is shown in FIG. 1B. […] In FIG. 1B, the peaks for components (5) and (6) were at the detection limit or less so that they were not detected.
In this time zone, the pheromone gland was excised from a virgin female adult (2 to 3 days old) under a microscope and immersed in n-hexane for 30 minutes. Then the insect body tissues were removed from the extraction liquid by filtration to produce an extract of peach fruit moth.
A GC-EAD (Gas Chromatography-Electroantennographic Detection) chart of the above extract of peach fruit moth is shown in FIG. 1.
Structural analyses of dimethyl disulfide (DMDS) adducts was conducted for each of the unsaturated bond sites of the monoene components. Finally, it was found in comparison with the retention times and mass spectra of the corresponding synthesized products that the components (1) to (6) were docosane, tricosane, (Z)-7-tricosene, (Z)-5-pentacosene, (Z)-12-nonadecen-9-one and (Z)-7-heneicosen-11-one, respectively, and the mixing weight ratio thereof was 6:341:432:36:2:8 with respect to 100 of (Z)-13-eicosen-10-one. FIGS. 2 to 7 show the mass spectra of the components (1) to (6) in the extract of peach fruit moth, while FIGS. 8 to 13 show the mass spectra of the commercial products and synthesized compounds.

## CCCCCC/C=C\CCC(=O)CCCCCCCCC [(Z)-13-eicosen-10-one]
  potential response of the antenna of a male adult (EAD): showed a potential response
